Assay: Log P by HPLC on reversed phase columns (EEC directive 79/831 Annex V.A8)
Format: physicochemical
Description: In the above tables, measurement of Log P values was performed according to EEC directive 79/831 Annex V.A8 by HPLC (High Performance Liquid Chromatography) on reversed phase columns with the following methods: • ^[a] Log P value is determined by measurement of LC-UV, in an acidic range, with 0.1% formic acid in water and acetonitrile as eluent (linear gradient from 10% acetonitrile to 95% acetonitrile). • ^[b] Log P value is determined by measurement of LC-UV, in a neutral range, with 0.001 molar ammonium acetate solution in water and acetonitrile as eluent (linear gradient from 10% acetonitrile to 95% acetonitrile). • ^[c] Log P value is determined by measurement of LC-UV, in an acidic range, with 0.1% phosphoric acid and acetonitrile as eluent (linear gradient from 10% acetonitrile to 95% acetonitrile). If more than one Log P value is available within the same method, all the values are given and separated by “+”. Calibration was done with straight-chain alkan2-ones (with 3 to 16 carbon atoms) with known Log P values (measurement of Log P values using retention times with linear interpolation between successive alkanones). Lambda-max-values were determined using UV-spectra from 200 nm to 400 nm and the peak values of the chromatographic signals.

[1] = LogP method [a], compounds of formula (I), Table 1.1
[2] = method [a], compounds of formula (I), Table 1.1
[3] = method marker [a] given with each value, Table 1.1, compounds of formula (I)
[4] = method [a]: LC-UV, acidic range, 0.1% formic acid in water and acetonitrile

Structure (SMILES): O=C(NC1(C(=O)OC2CCC2)CC1)c1sc(Cl)c(Br)c1F [1.0644]
- LogP (method [a]): 3.69^[a]

Structure (SMILES): COC(=O)C(CC(F)F)NC(=O)c1sc(Br)c(Br)c1C(F)F (stereo not drawn) [1.0361]
- LogP (method marked [a]): 3.28^[a]

Structure (SMILES): NC(=S)CNC(=O)c1sc(Br)c(Br)c1F [I.0896, N-(2-amino-2-sulfanylideneethyl)-4,5-dibromo-3-fluorothiophene-2-carboxamide]
- chromatographic logP (reversed phase HPLC columns, value in preparation example, method not marked): 2.25

Structure (SMILES): CCOC(=O)C(NC(=O)c1sc(F)c(Br)c1C)C(C)C (stereo not drawn) [1.0319]
- LogP (method marked [a]): 3.94^[a]

Structure (SMILES): Cc1c(C(=O)NC2CCSC2=O)sc(Cl)c1Br (stereo not drawn) [I.0821]
- LogP (method [a]: LC-UV, acidic range, 0.1% formic acid in water and acetonitrile, listed as 1.0821): 3.03^[a]

Structure (SMILES): CCOC(=O)C(CCSC)NC(=O)c1sc(Cl)c(Cl)c1C#N (stereo not drawn) [1.0814]
- LogP (method [a]): 3.46^[a]

Structure (SMILES): CCSC(=O)C1(NC(=O)c2cc(I)c(I)s2)CC1 [1.0480]
- LogP [1]: 3.39^[a]

Structure (SMILES): CCOC(=O)C(CO)NC(=O)c1sc(Cl)c(Br)c1C (racemic) [1.0019]
- LogP [2]: 2.54^[a]

Structure (SMILES): O=C(CNC(=O)c1sc(Br)c(Br)c1F)OC1CCOCC1 [1.1018]
- LogP [3]: 2.80^[a]

Structure (SMILES): CCOC(=O)CNC(=O)c1sc(I)c(Cl)c1Cl [1.0827]
- LogP (method [a]): 3.24^[a]

Structure (SMILES): CCOC(=O)C1(NC(=O)c2cc(C#N)c(Cl)s2)CC1 [1.0380]
- LogP (method marked [a]): 2.28^[a]

Structure (SMILES): COC(=O)c1sc(F)c(Br)c1Cl [II.059]
- LogP [4]: 3.44^[a]

Structure (SMILES): CCOC(=O)C1(NC(=O)c2sc(C#N)c(Cl)c2C)CC1 [1.0258]
- LogP (method [a]): 2.57^[a]

Structure (SMILES): C#CCOC(=O)CNC(=O)c1sc(Br)c(Br)c1F [1.0855]
- LogP (method [a]): 2.87^[a]

Structure (SMILES): Cc1c(C(=O)NC(C#N)c2ccccc2)sc(Cl)c1Br (stereo not drawn) [1.0109]
- LogP [2]: 3.85^[a]

Structure (SMILES): CCOC(=O)C(CCSC)NC(=O)c1sc(Br)c(Br)c1C(F)F (stereo not drawn) [1.0363]
- LogP (method marked [a]): 3.89^[a]

Structure (SMILES): CCOC(=O)C(CO)NC(=O)c1sc(Br)c(Cl)c1Br (stereo not drawn) [1.0847]
- LogP (method [a]): 2.89^[a]

Structure (SMILES): CCOC(=O)C1(NC(=O)c2cc(Cl)c(C#N)s2)CC1 [1.0387]
- LogP (method marked [a]): 2.32^[a]

Structure (SMILES): CCOC(=O)CNC(=O)c1sc(Cl)c(Br)c1Br [1.0208]
- LogP (method [a]): 3.35^[a]

Structure (SMILES): CCOC(=O)C(CSC)NC(=O)c1sc(C#N)c(Br)c1C (stereo not drawn) [1.0769]
- LogP (method marked [a]): 3.26^[a]

Structure (SMILES): O=C(CNC(=O)c1sc(Br)c(Br)c1Cl)OCc1ccccc1 [1.0990]
- LogP [3]: 4.15^[a]

Structure (SMILES): CC(C#N)(NC(=O)c1sc(Br)c(Br)c1F)C1CC1 (stereo not drawn) [1.0872]
- LogP (method [a]): 3.47^[a]

Structure (SMILES): CCOC(=O)C1(NC(=O)c2cc(F)c(Cl)s2)CC1 [1.0308]
- LogP (method marked [a]): 2.49^[a]

Structure (SMILES): CCOC(=O)C(C)NC(=O)c1sc(Br)c(Br)c1Cl (stereo not drawn) [1.0824]
- LogP (method [a]): 4.01^[a]

Structure (SMILES): CCOC(=O)C(Cc1ccccc1)NC(=O)c1sc(Cl)c(Br)c1Cl (stereo not drawn) [1.0187]
- LogP (method [a]): 5.04^[a]

Structure (SMILES): Cc1c(C(=O)O)sc(Cl)c1Br [II.014]
- LogP [4]: 2.80^[a]

Structure (SMILES): CCOC(=O)C(CC(C)C)NC(=O)c1sc(Br)c(Cl)c1C (stereo not drawn) [1.0078]
- LogP [2]: 4.53^[a]

Structure (SMILES): O=C(O)CNC(=S)c1sc(Cl)c(Cl)c1Br [1.0854]
- LogP (method [a]): 3.11^[a]

Structure (SMILES): COC(=O)C1(NC(=S)c2sc(Br)c(Br)c2I)CC1 [1.0150]
- LogP (method [a]): 3.99^[a]

Structure (SMILES): CCOC(=O)C(CCSC)NC(=O)c1cc(Br)c(Cl)s1 (stereo not drawn) [1.0238]
- LogP (method [a]): 3.65^[a]

Structure (SMILES): COC(=O)CNC(=S)c1cc(Br)c(Cl)s1 [1.0878]
- LogP (method [a]): 3.35^[a]

Structure (SMILES): CCOC(=O)C1(NC(=O)c2sc(I)c(Br)c2C)CCC1 [1.0099]
- LogP [2]: 3.71^[a]

Structure (SMILES): N#CCOC(=O)CNC(=O)c1sc(Br)c(Br)c1F [1.1008]
- LogP [3]: 2.67^[a]

Structure (SMILES): COC(=O)[C@H](Cc1ccccc1)NC(=O)c1sc(Br)c(Br)c1F [1.0155]
- LogP (method [a]): 4.12^[a]

Structure (SMILES): CCOC(=O)c1cc(C#N)c(Cl)s1 [II.090]
- LogP [4]: 3.01^[a]

Structure (SMILES): O=C(NC1(C(=O)OC2CCC2)CC1)c1sc(C(F)F)c(Br)c1Br [1.0520]
- LogP [1]: 3.67^[a]

Structure (SMILES): CCOC(=O)CNC(=O)c1sc(F)c(Cl)c1C [1.0297]
- LogP (method marked [a]): 2.59^[a]

Structure (SMILES): CCOC(=O)C(CCSC)NC(=O)c1sc(Br)c(Cl)c1C (stereo not drawn) [1.0079]
- LogP [2]: 3.94^[a]

Structure (SMILES): COC(=O)CNC(=O)c1cc(Cl)c(Br)s1 [1.0239]
- LogP (method [a]): 2.23^[a]

Structure (SMILES): CCOC(=O)C1(NC(=O)c2sc(Cl)c(Br)c2C#N)CCC1 [1.0630]
- LogP (method [a]): 3.20^[a]

Structure (SMILES): COC(=O)C(C)(Cc1ccccc1)NC(=O)c1sc(Br)c(Br)c1Cl (racemic) [1.0941]
- LogP [3]: 5.12^[a]

Structure (SMILES): COC(=O)C1(NC(=O)c2sc(Cl)c(Cl)c2C#N)CCC1 [1.0686]
- LogP (method marked [a]): 2.79^[a]

Structure (SMILES): COC(=O)[C@H](CC(=O)O)NC(=O)c1sc(Br)c(Br)c1F [1.1043]
- LogP [3]: 2.28^[a]

Structure (SMILES): O=C(NC1CCCCNC1=O)c1sc(Cl)c(Cl)c1Br (stereo not drawn) [I.0945]
- LogP [4]: 2.99^[a]

Structure (SMILES): CCOC(=O)C(NC(=O)c1sc(C#N)c(Cl)c1C)C(C)C (stereo not drawn) [1.0304]
- LogP (method marked [a]): 3.47^[a]

From patent US12642270B2, “Substituted thiophene carboxamides, thiophene carboxylic acids and derivatives thereof” (Bayer Aktiengesellschaft, priority 2019, dated 2026)
